Results reported in patent publication US10287255B2, “Compounds as histone deacetylase 6 inhibitors and pharmaceutical compositions comprising the same” (CHONG KUN DANG PHARMACEUTICAL CORP., priority 2014, dated 2019).

Key:
human recombinant HDAC1 = molecular target: T1, human recombinant HDAC1 (Homo sapiens, UniProt Q13547); assay: HDAC1 enzyme activity inhibition assay (in vitro, fluorimetric); format: biochemical; conditions: human recombinant HDAC1, fluorimetric kit, 30° C. 60 minutes
T1 construct: purchased Enzo Life Science BML-SE456
Method: (§1) In order to examine the HDAC6 selectivity of the compounds of formula 1 of the present invention by HDAC1 and HDAC6 enzymatic activity inhibition assays, an experiment was performed using a conventional substance as a control.
(§2) HDAC enzyme activity was measured using a HDAC Fluorimetric Drug Discovery Kit (BML-AK511, 516, Enzo Life Science). For the HDAC1 enzyme activity test, human recombinant HDAC1 (BML-SE456) was used as an enzyme source, and Fluor de Lys®-“SIRT1 (BNL-KI177) was used as a substrate. A 5-fold dilution of the compound was seeded into a 96-well plate, and then 0.3 μg of the enzyme and 10 μM of the substrate were added to each well of the plate and allowed to react at 30° C. for 60 minutes. Then, Fluor de Lys® Developer II (BML-KI176) was added thereto and allowed to react for 30 minutes, after which the fluorescence value (Ex 360, Em 460) was measured using a multi-plate reader (Flexstation 3, Molecular Device). The HDAC6 enzyme was tested using human recombinant HDAC6 (382180) (Calbiochem) according to the same protocol as the HDAC1 enzyme activity test method. Based on the resulting values, each IC50 value was calculated using GraphPad Prism4.0 program.

human recombinant HDAC6 = molecular target: T2, human recombinant HDAC6 (Homo sapiens, UniProt Q9UBN7); assay: HDAC6 enzyme activity inhibition assay (in vitro, fluorimetric); format: biochemical; conditions: for HDAC6 selectivity (fold): HDAC6 selectivity over HDAC1; for IC50: human recombinant HDAC6, fluorimetric kit, same protocol as HDAC1
T2 construct: purchased Calbiochem 382180
T2 sequence (Q9UBN7 1-1215): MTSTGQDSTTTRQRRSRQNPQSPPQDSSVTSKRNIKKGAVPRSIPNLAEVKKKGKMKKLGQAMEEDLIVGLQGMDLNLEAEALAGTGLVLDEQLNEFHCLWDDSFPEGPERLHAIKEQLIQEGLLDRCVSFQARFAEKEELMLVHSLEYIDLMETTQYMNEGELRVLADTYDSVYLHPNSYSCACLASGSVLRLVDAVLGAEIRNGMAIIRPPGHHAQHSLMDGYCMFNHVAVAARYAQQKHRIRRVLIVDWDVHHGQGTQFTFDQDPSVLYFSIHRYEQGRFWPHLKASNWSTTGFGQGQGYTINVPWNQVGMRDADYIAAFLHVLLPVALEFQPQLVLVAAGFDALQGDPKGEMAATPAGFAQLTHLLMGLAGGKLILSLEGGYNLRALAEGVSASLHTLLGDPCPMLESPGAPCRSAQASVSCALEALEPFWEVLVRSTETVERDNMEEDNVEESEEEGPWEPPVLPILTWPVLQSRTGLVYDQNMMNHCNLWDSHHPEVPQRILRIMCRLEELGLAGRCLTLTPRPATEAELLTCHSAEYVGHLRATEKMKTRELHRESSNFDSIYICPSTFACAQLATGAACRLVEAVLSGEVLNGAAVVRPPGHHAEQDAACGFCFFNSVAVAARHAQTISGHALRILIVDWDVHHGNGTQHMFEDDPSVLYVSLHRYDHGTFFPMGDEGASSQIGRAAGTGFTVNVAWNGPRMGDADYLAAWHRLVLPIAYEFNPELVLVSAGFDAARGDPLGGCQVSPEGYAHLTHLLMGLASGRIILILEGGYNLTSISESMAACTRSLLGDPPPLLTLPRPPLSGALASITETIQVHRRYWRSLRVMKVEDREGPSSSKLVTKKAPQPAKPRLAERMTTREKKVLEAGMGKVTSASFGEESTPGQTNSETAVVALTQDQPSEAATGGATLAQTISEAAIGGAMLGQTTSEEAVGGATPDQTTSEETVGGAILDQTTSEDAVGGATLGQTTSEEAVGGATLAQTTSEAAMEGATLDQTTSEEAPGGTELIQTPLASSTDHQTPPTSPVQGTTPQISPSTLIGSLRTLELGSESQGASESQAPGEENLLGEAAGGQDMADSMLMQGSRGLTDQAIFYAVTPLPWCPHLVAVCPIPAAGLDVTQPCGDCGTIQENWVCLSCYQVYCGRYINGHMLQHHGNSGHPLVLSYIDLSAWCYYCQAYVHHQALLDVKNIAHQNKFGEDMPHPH
Method: as §1, §2

T1 sequence (Q13547 whole entry): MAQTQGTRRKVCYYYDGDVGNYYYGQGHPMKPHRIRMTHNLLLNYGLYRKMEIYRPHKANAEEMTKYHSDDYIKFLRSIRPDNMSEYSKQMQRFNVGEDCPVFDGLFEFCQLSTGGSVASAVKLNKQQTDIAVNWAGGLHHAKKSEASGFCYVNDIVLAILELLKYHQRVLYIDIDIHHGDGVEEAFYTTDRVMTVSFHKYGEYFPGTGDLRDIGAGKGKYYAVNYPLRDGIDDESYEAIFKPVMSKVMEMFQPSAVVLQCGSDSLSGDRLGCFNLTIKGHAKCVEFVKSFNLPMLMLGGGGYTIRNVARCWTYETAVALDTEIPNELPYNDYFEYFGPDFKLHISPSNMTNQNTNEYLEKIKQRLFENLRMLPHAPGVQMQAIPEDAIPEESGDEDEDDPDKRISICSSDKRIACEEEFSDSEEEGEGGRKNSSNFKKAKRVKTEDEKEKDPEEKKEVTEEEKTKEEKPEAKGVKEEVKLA

SMILES	IC50 (human recombinant HDAC1) [µM]	HDAC6 selectivity (fold) (human recombinant HDAC6)	IC50 (human recombinant HDAC6) [µM]
C[C@@H]1CN(Cc2ccc(C(=O)NO)cc2)C[C@H](C)N1C(=O)c1ccc(CN2CCN(S(C)(=O)=O)CC2)cc1 [Compound 463, 4-(((3R,5S)-3,5-dimethyl-4-(4-((4-(methylsulfonyl)piperazin-1-yl)methyl)benzoyl)piperazin-1-yl)methyl)-N-hydroxybenzamide]	4.7	18	0.256
C[C@@H]1CN(Cc2cccc(CN3CCCC3)c2)C[C@H](C)N1Cc1ccc(C(=O)NO)cc1 [Compound 479, 4-(((2S,6R)-2,6-dimethyl-4-(3-(pyrrolidin-1-ylmethyl)benzyl)piperazin-1-yl)methyl)-N-hydroxybenzamide]	5.3	12	0.433
CC(C)N1CCN(Cc2cccc(C(=O)N3[C@H](C)CN(Cc4ccc(C(=O)NO)cc4)C[C@@H]3C)c2)CC1 [Compound 434, N-hydroxy-4-(((3R,5S)-4-(3-((4-isopropylpiperazin-1-yl)methyl)benzoyl)-3,5-dimethylpiperazin-1-yl)methyl)benzamide]	3.7	61	0.06
C[C@@H]1CN(Cc2ccc(C(=O)NO)cc2)C[C@H](C)N1Cc1ccccc1F [Compound 211, 4-(((3R,5S)-4-(2-fluorobenzyl)-3,5-dimethylpiperazin-1-yl)methyl)-N-hydroxybenzamide]	> 10	>154	0.065
C[C@@H]1CN(C(=O)c2cccc(-c3cccnc3)c2)C[C@H](C)N1Cc1ccc(C(=O)NO)cc1 [Compound 261, 4-(((2S,6R)-2,6-dimethyl-4-(3-(pyridin-3-yl)benzoyl)piperazin-1-yl)methyl)-N-hydroxybenzamide]	2	3	0.577
C[C@@H]1CN(S(=O)(=O)c2ccc(C(=O)NO)cc2)C[C@H](C)N1Cc1ccccc1 [Compound 818, 4-(((3R,5S)-4-benzyl-3,5-dimethylpiperazin-1-yl)sulfonyl)-N-hydroxybenzamide]	> 10	>11	0.87
C[C@@H]1CN(Cc2ccc(C(=O)NO)cc2)C[C@H](C)N1Cc1cccc(C2=CCC(C)(C)CC2)c1 [Compound 347, 4-(((3R,5S)-4-((4′,4′-dimethyl-2′,3′,4′,5′-tetrahydro-[1,1′-biphenyl]-3-yl)methyl)-3,5-dimethylpiperazin-1-yl)methyl)-N-hydroxybenzamide]	> 10	>25	0.408
Cc1nccn1-c1ccccc1CN1C[C@@H](C)N(Cc2ccc(C(=O)NO)cc2)[C@@H](C)C1 [Compound 305, 4-(((2S,6R)-2,6-dimethyl-4-(2-(2-methyl-1H-imidazol-1-yl)benzyl)piperazin-1-yl)methyl)-N-hydroxybenzamide]	5.6	174	0.032
C[C@@H]1CN(Cc2ccc(C(=O)NO)cc2F)C[C@H](C)N1Cc1ccccc1 [Compound 813, 4-(((3R,5S)-4-benzyl-3,5-dimethylpiperazin-1-yl)methyl)-3-fluoro-N-hydroxybenzamide]	17.2	1720	0.01
C[C@@H]1CN(Cc2ccc(C(=O)NO)cc2)C[C@H](C)N1C(=O)c1ccc(CN2CCOCC2)cc1 [Compound 458, 4-(((3R,5S)-3,5-dimethyl-4-(4-(morpholinomethyl)benzoyl)piperazin-1-yl)methyl)-N-hydroxybenzamide]	6.1	21	0.286
CCCCN1C[C@@H](C)N(Cc2ccc(C(=O)NO)cc2)[C@@H](C)C1 [Compound 274, 4-(((2S,6R)-4-butyl-2,6-dimethylpiperazin-1-yl)methyl)-N-hydroxybenzamide]	13.5	36	0.378
C[C@@H]1CN(Cc2ccc(C(=O)NO)cc2)C[C@H](C)N1C(=O)c1cccc(-c2ccncc2)c1 [Compound 245, 4-(((3R,5S)-3,5-dimethyl-4-(3-(pyridin-4-yl)benzoyl)piperazin-1-yl)methyl)-N-hydroxybenzamide]	3.6	31	0.116
C[C@@H]1CN(C(=O)c2cccc(-c3ccnc(F)c3)c2)C[C@H](C)N1Cc1ccc(C(=O)NO)cc1 [Compound 262, 4-(((2S,6R)-4-(3-(2-fluoropyridin-4-yl)benzoyl)-2,6-dimethylpiperazin-1-yl)methyl)-N-hydroxybenzamide]	2.4	3	0.727
C[C@@H]1CN(Cc2cccc(-c3ccoc3)c2)C[C@H](C)N1Cc1ccc(C(=O)NO)cc1 [Compound 396, 4-(((2S,6R)-4-(3-(furan-3-yl)benzyl)-2,6-dimethylpiperazin-1-yl)methyl)-N-hydroxybenzamide]	1.7	4	0.406
C[C@@H]1CN(Cc2ccc(C(=O)NO)cc2)C[C@H](C)N1C(=O)c1cccc(-c2ccco2)c1 [Compound 242, 4-(((3R,5S)-4-(3-(furan-2-yl)benzoyl)-3,5-dimethylpiperazin-1-yl)methyl)-N-hydroxybenzamide]	2.4	24	0.098
C[C@@H]1CN(C(=O)Cc2cccc(-c3ccncc3)c2)C[C@H](C)N1Cc1ccc(C(=O)NO)cc1 [Compound 251, 4-(((2S,6R)-2,6-dimethyl-4-(2-(3-(pyridin-4-yl)phenyl)acetyl)piperazin-1-yl)methyl)-N-hydroxybenzamide]	13.7	57	0.242
C[C@@H]1CN(Cc2cc3cc(C(=O)NO)ccc3o2)C[C@H](C)N1Cc1ccccc1 [Compound 574, 2-(((3R,5S)-4-benzyl-3,5-dimethylpiperazin-1-yl)methyl)-N-hydroxybenzofuran-5-carboxamide]	3.9	4	0.81
C[C@@H]1CN(Cc2ccc(-c3cccs3)cc2)C[C@H](C)N1Cc1ccc(C(=O)NO)cc1 [Compound 302, 4-(((2S,6R)-2,6-dimethyl-4-(4-(thiophen-2-yl)benzyl)piperazin-1-yl)methyl)-N-hydroxybenzamide]	3.6	3	1.13
C[C@@H]1CN(Cc2ccc(C(=O)NO)cc2)C[C@H](C)N1Cc1cccc(-c2ccco2)c1 [Compound 342, 4-(((3R,5S)-4-(3-(furan-2-yl)benzyl)-3,5-dimethylpiperazin-1-yl)methyl)-N-hydroxybenzamide]	8.7	456	0.019
C[C@@H]1CN(Cc2ccc(C(=O)NO)cc2)C[C@H](C)N1C(=O)CCc1ccccc1 [Compound 188, 4-(((3R,5S)-3,5-dimethyl-4-(3-phenylpropanoyl)piperazin-1-yl)methyl)-N-hydroxybenzamide]	13.6	71	0.191
C[C@@H]1CN(Cc2ccc(C(=O)NO)cc2)C[C@H](C)N1C(=O)c1cccc(C2=CCOCC2)c1 [Compound 244, 4-(((3R,5S)-4-(3-(3,6-dihydro-2H-pyran-4-yl)benzoyl)-3,5-dimethylpiperazin-1-yl)methyl)-N-hydroxybenzamide]	3.4	35	0.097
